Results taken from patent US8614201B2 (Janssen Pharmaceutica NV, priority 2009, dated 2013).
pIC50: −log10 of the molar value.

Target: Human TRPA1 (Homo sapiens, UniProt O75762)
Experiment: Alternative TRPA1 Ca2+ fluorometry assay (hTRPA1/TREx-HEK293 cells, Fluo-4, FDSS 6000)
Type: cell-based
Parameters: expressed in transfected cells
Conditions: Fluo-4-AM, agonist 6,11-dihydro-5H-dibenzo[b,e]azepine-10-carboxylic acid methyl ester 25 nM, procedure used for Examples 184, 190 to 192, 194 to 316
Description: In alternative embodiments, the assay was performed using the following procedure for Examples 184, 190 to 192, and 194 to 316:
The human TRPA1 gene was cloned into the pT-Rex-Dest30 inducible vector and stably transfected in T-Rex™-293 cells (Invitrogen, Merelbeke, Belgium). This tetracycline inducible hTRPA1 expression system was used in order to prevent CA^2+ overload in the cultured cells due to sustained TRPA1 expression. hTRPA1/TREx-HEK293 cells (referred to as jTRPA1 cells in the following text) were maintained under standard sterile cell culture conditions. The culture medium for the jTRPA1-HEK cells was DMEN (Gibco BRL, Invitrogen, Merelbeke, Belgium) supplemented with 5 g/l gengticin (Gibco), 5 mL/l blasticidin (Invitorgen), 14.6 g/l L-Glutamine (200 mMl; Gibco), 5 g/l penicillin/streptomycin (5.10-6 IU/I, Gibco), 5.5 g/l pyruvic acid (Gibco) and 10% foetal calf serum (Hyclone, Logan Utah, USA).
For Ca^2+ fluorometry experiments, hTRPA1-HEK cells were resuspended in HBSS seeding medium: HBSS (with CaCl2 and MgCl2: Gibco) supplemented with 14.6 g/l L-Glutamine (200 mM; Gibco), 5 g/l penicillin/streptomycin (5.10-6 IU/l. Gibco), 5.5 g/l pyruvic acid (Gibco) and 10% foetal calf serum (heat inactivated for 30 minutes at 56° C.; Hyclone, Logan Utah, USA). The cells were seeded in poly-D-lysine-coated 384-well round bottom polypropylene plates (Costar Corning, Data Packaging, Cambridge Mass., USA) at 12000 cells/well. Fifty ng/ml tetracycline was added to induce the hTRPA1 expression 24 h before the experiment.
The cells were loaded with 5 mg/l Fluo-4-AM (Molecular Probes, Invitorgen, Merelbeke, Belgium) dissolved in HBSS seeding medium supplemented with 0.7 g/l Probenecid (Sigma) and incubated for 1 h at 37° C. and subsequently at 20° C. for 1 to 2 h. The fluorescence was measured in the FDSS 6000 imaging based plate reader (Hamamutsu Photonics K.K., Hamamutsu City, Japan). The excitation wavelength was 488 nm and the emission wavelength 540 nm. After a control period of 12 seconds the inventive compounds were added and the Ca^2+ signal was measured within 14 minutes after application. Finally, a TRPA1 agonist, 6,11-dihydro-5H-dibenzo[b,e]azepine-10-carboxylic acid methyl ester, was added at a final concentration of 25 nM. The emission ratio was calculated by dividing the emission signal (Em540) by the first EM540 signal of the control period to compensate for the background fluorescence. […] For intracellular Ca^2+ measurements, a compound stock solution (10 to 100 mM) was further diluted in DMSO in order to obtain a final 1% DMSO concentration in the extracellular solution.

Sequence of Human TRPA1 (O75762 whole entry): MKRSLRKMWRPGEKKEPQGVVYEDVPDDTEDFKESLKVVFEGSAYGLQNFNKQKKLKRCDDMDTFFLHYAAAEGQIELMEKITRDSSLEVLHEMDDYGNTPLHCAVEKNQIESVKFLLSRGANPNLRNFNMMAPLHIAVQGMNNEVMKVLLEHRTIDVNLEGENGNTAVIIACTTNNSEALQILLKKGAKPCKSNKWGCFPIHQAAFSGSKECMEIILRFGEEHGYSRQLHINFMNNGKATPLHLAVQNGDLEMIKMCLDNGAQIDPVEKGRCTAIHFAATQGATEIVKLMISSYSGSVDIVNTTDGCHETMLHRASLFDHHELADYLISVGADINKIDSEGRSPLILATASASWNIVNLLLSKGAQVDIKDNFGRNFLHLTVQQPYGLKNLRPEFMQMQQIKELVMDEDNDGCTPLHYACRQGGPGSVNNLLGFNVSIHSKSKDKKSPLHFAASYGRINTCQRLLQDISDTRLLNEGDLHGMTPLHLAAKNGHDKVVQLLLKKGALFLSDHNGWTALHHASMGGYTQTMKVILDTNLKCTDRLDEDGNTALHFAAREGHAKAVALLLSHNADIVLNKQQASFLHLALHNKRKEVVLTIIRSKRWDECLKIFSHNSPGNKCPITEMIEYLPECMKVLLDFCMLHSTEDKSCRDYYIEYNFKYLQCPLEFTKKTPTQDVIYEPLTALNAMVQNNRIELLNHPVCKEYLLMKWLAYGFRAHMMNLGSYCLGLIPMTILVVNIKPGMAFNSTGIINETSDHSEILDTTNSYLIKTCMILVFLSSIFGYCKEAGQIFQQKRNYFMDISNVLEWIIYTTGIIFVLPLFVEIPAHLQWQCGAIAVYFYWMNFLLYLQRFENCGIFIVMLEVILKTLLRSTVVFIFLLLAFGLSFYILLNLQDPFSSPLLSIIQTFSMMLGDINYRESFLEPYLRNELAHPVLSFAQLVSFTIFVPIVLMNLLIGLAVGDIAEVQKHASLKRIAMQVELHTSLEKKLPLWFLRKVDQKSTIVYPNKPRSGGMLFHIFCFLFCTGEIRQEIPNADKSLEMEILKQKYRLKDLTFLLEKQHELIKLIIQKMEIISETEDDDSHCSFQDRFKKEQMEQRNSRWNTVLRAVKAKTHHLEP

Row | SMILES | pIC50
1 | CC(Nc1nc(CNC(=O)[C@@H]2CCCN2S(=O)(=O)c2ccc(F)cc2)cc(-c2ccc(Br)cc2)n1)c1ccccc1 (stereo partly drawn) [Example 212, 1-(4-Fluoro-benzenesulfonyl)-pyrrolidine-2S-carboxylic acid [6-(4-bromo-phenyl)-2-(1(R,S)-phenyl-ethylamino)-pyrimidin-4-ylmethyl]-amide] | 6.17
2 | O=C(NCc1cc(-c2ccc(Br)cc2)nc(N2CCC(Cc3ccccc3)CC2)n1)[C@@H]1CCCN1S(=O)(=O)c1ccc(F)cc1 [Example 213, 1-(4-Fluoro-benzenesulfonyl)-pyrrolidine-2S-carboxylic acid [2-(4-benzyl-piperidin-1-yl)-6-(4-bromo-phenyl)-pyrimidin-4-ylmethyl]-amide] | 5.62
3 | CCCCNc1nc(CNC(=O)[C@@H]2CCCN2S(=O)(=O)c2ccc(F)cc2)cc(-c2ccc(Br)cc2)n1 [Example 215, 1-(4-Fluoro-benzenesulfonyl)-pyrrolidine-2S-carboxylic acid [6-(4-bromo-phenyl)-2-butylamino-pyrimidin-4-ylmethyl]-amide] | 5.99
4 | O=C(NCc1cc(-c2ccc(Br)cc2)nc(N2CCN(c3ccccn3)CC2)n1)[C@@H]1CCCN1S(=O)(=O)c1ccc(F)cc1 [Example 216, 1-(4-Fluoro-benzenesulfonyl)-pyrrolidine-2S-carboxylic acid [6-(4-bromo-phenyl)-2-(4-pyridin-2-yl-piperazin-1-yl)-pyrimidin-4-ylmethyl]-amide] | 5.92
5 | O=C(NCc1cc(-c2ccc(Br)cc2)nc(NCCc2ccc(Cl)cc2Cl)n1)[C@@H]1CCCN1S(=O)(=O)c1ccc(F)cc1 [Example 221, 1-(4-Fluoro-benzenesulfonyl)-pyrrolidine-2S-carboxylic acid {6-(4-bromo-phenyl)-2-[2-(2,4-dichloro-phenyl)-ethylamino]-pyrimidin-4-ylmethyl}-amide] | 5.69
6 | O=C(NCc1cc(-c2ccc(OC(F)(F)F)cc2)nc(N2CCN(c3ccccc3F)CC2)n1)[C@@H]1CCCN1S(=O)(=O)c1ccc(F)cc1 [Example 226, 1-(4-Fluoro-benzenesulfonyl)-pyrrolidine-2S-carboxylic acid [2-[4-(2-fluoro-phenyl)-piperazin-1-yl]-6-(4-trifluoromethoxy-phenyl)-pyrimidin-4-ylmethyl]-amide] | 6.94
7 | O=C(NCc1cc(-c2ccc(F)cc2)nc(N2CCN(c3ccccc3F)CC2)n1)[C@@H]1CCCN1S(=O)(=O)c1ccc(F)cc1 [Example 227, 1-(4-Fluoro-benzenesulfonyl)-pyrrolidine-2S-carboxylic acid {6-(4-fluoro-phenyl)-2-[4-(2-fluoro-phenyl)-piperazin-1-yl]-pyrimidin-4-ylmethyl}-amide] | 5.93
8 | COc1cccc(OC)c1-c1cc(CNC(=O)[C@@H]2CCCN2S(=O)(=O)c2ccc(F)cc2)nc(N2CCN(c3ccccc3F)CC2)n1 [Example 228, 1-(4-Fluoro-benzenesulfonyl)-pyrrolidine-2S-carboxylic acid {6-(2,6-dimethoxy-phenyl)-2-[4-(2-fluoro-phenyl)-piperazin-1-yl]-pyrimidin-4-ylmethyl}-amide] | 5.64
9 | N#Cc1ccc(-c2cc(CNC(=O)[C@@H]3CCCN3S(=O)(=O)c3ccc(F)cc3)nc(N3CCN(c4ccccc4F)CC3)n2)cc1 [Example 229, 1-(4-Fluoro-benzenesulfonyl)-pyrrolidine-2-carboxylic acid {6-(4-cyano-phenyl)-2-[4-(2-fluoro-phenyl)-piperazin-1-yl]-pyrimidin-4-ylmethyl}-amide] | 5.80
10 | COc1ccc(F)cc1-c1cc(CNC(=O)[C@@H]2CCCN2S(=O)(=O)c2ccc(F)cc2)nc(N2CCN(c3ccccc3F)CC2)n1 [Example 230, 1-(4-Fluoro-benzenesulfonyl)-pyrrolidine-2S-carboxylic acid {6-(5-fluoro-2-methoxy-phenyl)-2-[4-(2-fluoro-phenyl)-piperazin-1-yl]-pyrimidin-4-ylmethyl}-amide] | 5.89

The next lines start with the values.

Row | pIC50 | SMILES
11 | ~5.79 | O=C(NCc1cc(-c2ccc(Br)cc2)nc(NC2CCCC2)n1)[C@@H]1CCCN1S(=O)(=O)c1ccc(F)cc1 [Example 211, 1-(4-Fluoro-benzenesulfonyl)-pyrrolidine-2S-carboxylic acid [6-(4-bromo-phenyl)-2-cyclopentylamino-pyrimidin-4-ylmethyl]-amide]
12 | ~6.01 | CCOC(=O)C1CCN(c2nc(CNC(=O)[C@@H]3CCCN3S(=O)(=O)c3ccc(F)cc3)cc(-c3ccc(Br)cc3)n2)CC1 [Example 214, 1-[4-(4-Bromo-phenyl)-6-({[1-(4-fluoro-benzenesulfonyl)-pyrrolidine-2S-carbonyl]-amino}-methyl)-pyrimidin-2-yl]-piperidine-4-carboxylic acid ethyl ester]
13 | 6.06 | O=C(NCc1cc(-c2ccc(Br)cc2)nc(N2CCOCC2)n1)[C@@H]1CCCN1S(=O)(=O)c1ccc(F)cc1 [Example 217, 1-(4-Fluoro-benzenesulfonyl)-pyrrolidine-2S-carboxylic acid [6-(4-bromo-phenyl)-2-morpholin-4-yl-pyrimidin-4-ylmethyl]-amide]
14 | < 5.00 | CN1CCCN(c2nc(CNC(=O)[C@@H]3CCCN3S(=O)(=O)c3ccc(F)cc3)cc(-c3ccc(Br)cc3)n2)CC1 [Example 218, 1-(4-Fluoro-benzenesulfonyl)-pyrrolidine-2S-carboxylic acid [6-(4-bromo-phenyl)-2-(4-methyl-[1,4]diazepan-1-yl)-pyrimidin-4-ylmethyl]-amide]
15 | ~5.57 | O=C(NCc1cc(-c2ccc(Br)cc2)nc(NCc2cccnc2)n1)[C@@H]1CCCN1S(=O)(=O)c1ccc(F)cc1 [Example 219, 1-(4-Fluoro-benzenesulfonyl)-pyrrolidine-2S-carboxylic acid {6-(4-bromo-phenyl)-2-[(pyridin-3-ylmethyl)-amino]-pyrimidin-4-ylmethyl}-amide]
16 | ~5.35 | CN1CCN(c2nc(CNC(=O)[C@@H]3CCCN3S(=O)(=O)c3ccc(F)cc3)cc(-c3ccc(Br)cc3)n2)CC1 [Example 220, 1-(4-Fluoro-benzenesulfonyl)-pyrrolidine-2S-carboxylic acid [6-(4-bromo-phenyl)-2-(4-methyl-piperazin-1-yl)-pyrimidin-4-ylmethyl]-amide]
17 | 5.04 | O=C(NCc1cc(-c2ccc(Br)cc2)nc(N2CCc3ccccc3C2)n1)[C@@H]1CCCN1S(=O)(=O)c1ccc(F)cc1 [Example 222, 1-(4-Fluoro-benzenesulfonyl)-pyrrolidine-2S-carboxylic acid [6-(4-bromo-phenyl)-2-(3,4-dihydro-1H-isoquinolin-2-yl)-pyrimidin-4-ylmethyl]-amide]
18 | < 5.00 | O=C(NCc1cc(-c2ccc3c(c2)OCO3)nc(Nc2cccc(Cl)c2)n1)[C@@H]1CCCN1S(=O)(=O)c1ccc(F)cc1 [Example 223, 1-(4-Fluoro-benzenesulfonyl)-pyrrolidine-2S-carboxylic acid [6-benzo[1,3]dioxol-5-yl-2-(3-chloro-phenylamino)-pyrimidin-4-ylmethyl]-amide]
19 | < 5.00 | O=C(NCc1cc(-c2ccc3c(c2)OCO3)nc(Nc2ccc(Cl)cc2)n1)[C@@H]1CCCN1S(=O)(=O)c1ccc(F)cc1 [Example 224, 1-(4-Fluoro-benzenesulfonyl)-pyrrolidine-2S-carboxylic acid [6-benzo[1,3]dioxol-5-yl-2-(4-chloro-phenylamino)-pyrimidin-4-ylmethyl]-amide]
20 | 5.60 | O=C(NCc1cc(-c2ccc3c(c2)OCO3)nc(Nc2ccc(F)cc2)n1)[C@@H]1CCCN1S(=O)(=O)c1ccc(F)cc1 [Example 225, 1-(4-Fluoro-benzenesulfonyl)-pyrrolidine-2S-carboxylic acid [6-benzo[1,3]dioxol-5-yl-2-(4-fluoro-phenylamino)-pyrimidin-4-ylmethyl]-amide]
21 | 5.95 | Cc1ccc(C)c(-c2cc(CNC(=O)[C@@H]3CCCN3S(=O)(=O)c3ccc(F)cc3)nc(N3CCN(c4ccccc4F)CC3)n2)c1 [Example 232, 1-(4-Fluoro-benzenesulfonyl)-pyrrolidine-2S-carboxylic acid {6-(2,5-dimethyl-phenyl)-2-[4-(2-fluoro-phenyl)-piperazin-1-yl]-pyrimidin-4-ylmethyl}-amide]
